Experiment [1] has as its target GDP-bound NRAS wild-type protein (Homo sapiens, UniProt P01111). Description: Binding to NRAS by surface plasmon resonance (SPR), Single Cycle Kinetics. A general note: Surface plasmon resonance follows binding to a sensor surface in real time, without labels.
The target in experiment [2] is GDP-bound HRAS wild-type protein (Homo sapiens, UniProt P01112). Description: Binding to HRAS by surface plasmon resonance (SPR), Single Cycle Kinetics.
[3] abbreviates: KD ratio NRAS/KRAS, class symbols.
Where [4] appears, read: KD ratio HRAS/KRAS, class symbols.
Where [5] appears, read: KD ratio, GDP-bound NRAS wild-type vs GDP-bound KRAS wild-type, SPR.
[6] abbreviates: KD ratio, GDP-bound HRAS wild-type vs GDP-bound KRAS wild-type, SPR.

The results in this text go back to patent US20250230193A1, “CYCLIC COMPOUND HAVING SELECTIVE KRAS INHIBITORY EFFECT ON HRAS AND NRAS” (CHUGAI SEIYAKU KABUSHIKI KAISHA, priority 2022, published 2025).

SMILES strings stand for the structures. *1 amine or outer side, *2 acyl side, *3 side chain or, on linkers, in order; H or OH if unused. Where a SMILES comes first, the peptide text is derived from it. Bridges are numbered along the chain shown (N, C = ends). [ ]: non-standard residue; d: D form. The star is where a group is joined. hPhe(3-Cl-4-CF3) = N[C@@H](CCc1ccc(C(F)(F)F)c(Cl)c1)C(=O)O; X17 = CCCCN([C@@H](Cc1ccc(C(F)(F)F)cc1)C(=O)[*:2])[*:1]; NMeGly(cPent) = CN[C@H](C(=O)O)C1CCCC1; NMeD = CN[C@@H](CC(=O)O)C(=O)O; NMeL = CN[C@@H](CC(C)C)C(=O)O; Morpholide = C1CN(*)CCO1; NMeA = CN[C@@H](C)C(=O)O; Ac5c = NC1(C(=O)O)CCCC1; Aze = O=C(O)[C@@H]1CCN1; Sar = CNCC(=O)O

Sequence of GDP-bound HRAS wild-type protein (P01112 whole entry): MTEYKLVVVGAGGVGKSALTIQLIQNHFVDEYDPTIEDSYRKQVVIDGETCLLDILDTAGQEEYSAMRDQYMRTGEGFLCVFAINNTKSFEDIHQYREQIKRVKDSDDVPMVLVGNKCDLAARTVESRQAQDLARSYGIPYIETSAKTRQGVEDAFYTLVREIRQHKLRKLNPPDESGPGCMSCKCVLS
Sequence of GDP-bound NRAS wild-type protein (P01111 whole entry): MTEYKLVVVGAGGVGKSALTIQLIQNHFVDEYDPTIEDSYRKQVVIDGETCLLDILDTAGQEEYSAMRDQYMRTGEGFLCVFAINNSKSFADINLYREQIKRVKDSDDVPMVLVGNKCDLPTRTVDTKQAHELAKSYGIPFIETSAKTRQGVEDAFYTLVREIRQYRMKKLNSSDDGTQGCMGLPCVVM

Consider `CCO[C@@H]1C[C@H]2C(=O)NC3(CCC3)C(=O)N(C)[C@@H](C3CCCC3)C(=O)N(CCC3CCC3)[C@H](C(=O)N3CCOCC3)CC(=O)N(C)[C@@H](CC(C)C)C(=O)N[C@@H]([C@@H](C)CC)C(=O)N(C)CC(=O)N(C)[C@H]3CCCCCN(C3=O)[C@@H](Cc3ccc(C(F)(F)F)cc3)C(=O)N(C)CC(=O)N[C@@H](CCc3cc(F)c(C(F)(F)F)c(F)c3)C(=O)N2C1` [PP0640], for which the “NRAS/KRAS (ratio of KD value with respect to GDP-bound NRAS wild-type protein to KD value with respect to KRAS)” value in experiment [1] (KD ratio NRAS/KRAS, SPR) is “B (a compound having 3 or more and less than 10 is denoted as B)”. Further, the “HRAS/KRAS (ratio of KD value with respect to GDP-bound HRAS wild-type protein to KD value with respect to KRAS)” value in experiment [2] (KD ratio HRAS/KRAS, SPR) is “B (a compound having 3 or more and less than 10 is denoted as B)”.

Consider `CCC[C@H]1C(=O)N[C@@H]([C@@H](C)CC)C(=O)N(C2CC2)CC(=O)N(C)[C@H]2C/C=C\CCN(C2=O)[C@@H](CC2CCCCC2)C(=O)N(C)CC(=O)N[C@@H](CCc2ccc(C(F)(F)F)c(OC)c2)C(=O)N2C[C@H](OCC)C[C@H]2C(=O)N(C)C2(CCC2)C(=O)N(C)[C@@H](C2CCCC2)C(=O)N(C)[C@H](C(=O)N(C)C)CC(=O)N1C` [PP2340], for which the “NRAS/KRAS (ratio of KD value with respect to NRAS to KD value with respect to KRAS)” value in experiment [1] (SPR, GDP-bound NRAS wild-type vs GDP-bound KRAS wild-type) was “B (a compound having 3 or more and less than 10 is denoted as B)”. Also, the “HRAS/KRAS (ratio of KD value with respect to HRAS to KD value with respect to KRAS)” value in experiment [2] (SPR, GDP-bound HRAS wild-type vs GDP-bound KRAS wild-type) was “B (a compound having 3 or more and less than 10 is denoted as B)”.

On to `CCC[C@H]1C(=O)N[C@@H]([C@@H](C)CC)C(=O)N(C)CC(=O)N(C)[C@H]2C/C=C\CCN(C2=O)[C@@H](Cc2ccc(C(F)(F)F)cc2)C(=O)N(C)CC(=O)N[C@@H](CCc2ccc3c(C)c(C)n(C)c3c2)C(=O)N2C[C@H](OCC)C[C@H]2C(=O)NC2(CC(C)(C)C2)C(=O)N(C)[C@@H](C(CC)CC)C(=O)N(C)[C@H](C(=O)N(C)C)CC(=O)N1C` [PP2904], for which the “NRAS/KRAS (ratio of KD value with respect to GDP-bound NRAS wild-type protein to KD value with respect to KRAS)” value in experiment [1] (setting [3]) is on record as “AA (a compound having 20 or more is denoted as AA)”. The “HRAS/KRAS (ratio of KD value with respect to GDP-bound HRAS wild-type protein to KD value with respect to KRAS)” value in experiment [2] (setting [4]) was “A (a compound having 10 or more and less than 20 is denoted as A)”.

As for `CC[C@H](C)[C@@H]1NC(=O)[C@H](CC)N(C)C(=O)C[C@@H](C(=O)N(CC)CC)N(C)C(=O)[C@H](C2CCCC2)N(C)C(=O)C2(CC(C)(C)C2)NC(=O)[C@@H]2C[C@H](C)CN2C(=O)[C@H](CCc2ccc(C(F)(F)F)c(OC)c2)NC(=O)CN(C)C(=O)[C@H](Cc2ccc(C)cc2)N2CC/C=C\C[C@@H](C2=O)N(C)C(=O)CN(C)C1=O` [PP1839], the “NRAS/KRAS (ratio of KD value for NRAS to KD value for KRAS)” value in experiment [1] (setting [5]) was “A (a compound having 10 or more and less than 20 is denoted as A)”. In addition, the “HRAS/KRAS (ratio of KD value for HRAS to KD value for KRAS)” value in experiment [2] (setting [6]) was “B (a compound having 3 or more and less than 10 is denoted as B)”.

Turning to `CCO[C@@H]1C[C@H]2C(=O)NC3(CCC3)C(=O)N(C)[C@@H](C3CCCC3)C(=O)N(C)[C@H](C(=O)N3CCOCC3)CC(=O)N(C)[C@@H](CCOC)C(=O)N[C@@H]([C@@H](C)CC)C(=O)N(C)CC(=O)N(C)[C@H]3CCCCCN(C3=O)[C@@H](Cc3ccc(F)cc3)C(=O)N(C)CC(=O)N[C@@H](CCc3cc(F)c(C(F)(F)F)c(F)c3)C(=O)N2C1` [PP1180], the “NRAS/KRAS (ratio of KD value with respect to NRAS to KD value with respect to KRAS)” value in experiment [1] (setting [5]) is “B (a compound having 3 or more and less than 10 is denoted as B)”. The “HRAS/KRAS (ratio of KD value with respect to HRAS to KD value with respect to KRAS)” value in experiment [2] (setting [6]) was “B (a compound having 3 or more and less than 10 is denoted as B)”.

Consider `CCOC[C@H]1C(=O)N[C@@H]([C@@H](C)CC)C(=O)N(C)CC(=O)N(C)[C@H]2C/C=C\CCN(C2=O)[C@@H](Cc2ccc(C(F)(F)F)cc2)C(=O)N(C)CC(=O)N[C@@H](CCc2ccc(Cl)c(Cl)c2)C(=O)N2C[C@H](OCC)C[C@H]2C(=O)NC2(CC(C)(C)C2)C(=O)N(C)[C@@H](CC2CCC2)C(=O)N(C)[C@H](C(=O)N(C)C)CC(=O)N1C` [PP2767], for which, in experiment [1] (setting [3]), the “NRAS/KRAS (ratio of KD value with respect to GDP-bound NRAS wild-type protein to KD value with respect to KRAS)” value is “A (a compound having 10 or more and less than 20 is denoted as A)”. In experiment [2] (setting [4]), the “HRAS/KRAS (ratio of KD value with respect to GDP-bound HRAS wild-type protein to KD value with respect to KRAS)” value is “A (a compound having 10 or more and less than 20 is denoted as A)”.

With `CCCCN1C(=O)[C@@H]2CCN2C(=O)[C@H](C)N(C)C(=O)[C@H]([C@@H](C)CC)NC(=O)[C@H](CC(C)C)N(C)C(=O)C[C@@H](C(=O)N2CCOCC2)N(C)C(=O)[C@H](C2CCCC2)N(C)C(=O)C2(CCCC2)NC(=O)[C@@H]2CCCN2C(=O)[C@H](CCc2ccc(C(F)(F)F)c(Cl)c2)NC(=O)CN(C)C(=O)[C@@H]1Cc1ccc(C(F)(F)F)cc1` [PP0106] ([NMeL]I[NMeA][Aze][X17][Sar][hPhe(3-Cl-4-CF3)]P[Ac5c][NMeGly(cPent)][NMeD]-Morpholide; lactam N-11), in experiment [1] (KD ratio NRAS/KRAS, SPR), the “NRAS/KRAS (ratio of KD for GDP-bound NRAS wild-type to KD for KRAS)” value is “C (A compound having a KD ratio of 0.1 or more and less than 3 is denoted as C)”. For the same molecule, in experiment [2] (KD ratio HRAS/KRAS, SPR), the “HRAS/KRAS (ratio of KD for GDP-bound HRAS wild-type to KD for KRAS)” value is “B (a compound having 3 or more and less than 10 is denoted as B)”.
